From patent US20100168112A1, “2-Substituted and 4-substituted aryl nitrone compounds” (RENOVIS, INC., priority 2004, published 2010)
Where two headings read alike, the source gives them in different places.

Tests used:
[1] = DPPH free radical-scavenging/antioxidant assay; assay type: biochemical; conditions: 50 μM DPPH in 80% methanol; 24 h time point; read-out: EC50 (concentration at which a compound reduces by 50% the peak absorbance of DPPH at 520 nm)
Method: Nitrone compounds of the present invention were tested for their free-radical scavenging/antioxidant activity in an in vitro assay that is accepted by those skilled in the art as a model for conditions involving the generation of free radicals. The assay is based on a reaction between a free-radical donor, 2,2-diphenyl-1-picrylhydrazyl (DPPH), and a radical scavenger/antioxidant to be tested for free-radical scavenging activity. Upon donation of the free-radical electron to the purported radical scavenger, the peak visible absorbance of DPPH (515-520 nm) decreases so that optical density readings at this part of the visual spectrum reflect the progression of the following reaction:
where AH is a hypothetical radical scavenger/antioxidant. The assay is based on a protocol originally detailed in Brand-Williams, W. et al., 1995, Use of a Free Radical Method to Evaluate Antioxidant Activity, Lebensm. Wiss. Technol., 28:25-30, with further modifications described in L. R. Fukumoto and G. Mazza, 2000, Assessing Antioxidant and Prooxidant Activities of Phenolic Compounds, J. Agric. Food Chem., 48:3597-3604.
The antioxidant assay was performed using Perkin-Elmer 96-well, clear-bottom, black-wall plates (ordered from E & K Scientific Products) and a Tecan Safire absorbance plate reader. The positive controls were Trolox (6-hydroxy-2,5,7,8-tetramethylchromane-2-carboxylic acid, Sigma-Aldrich), BHA (2(3)-tert-butylhydroquinone monomethyl ether, Sigma-Aldrich), PBN (C-(phenyl)-N-(tert-butyl)nitrone, Sigma-Aldrich) and S-PBN (C-(2-sulfophenyl)-N-(tert-butyl)nitrone, sodium salt, prepared according to E. G. Janzen and R. V. Shetty, 1979, Tetrahedron Lett., 35: 3229-32), and the negative control (i.e., vehicle) was DMSO. In brief, 2 μL of 100× DMSO stock of the desired final concentration of each control or nitrone compound to be tested in the same batch was added to a separate well. To each well was then added 198 μL of a freshly made 50 μM DPPH (Sigma-Aldrich) solution in 80% methanol using a multi-channel pipette. The absorbance was immediately read on the plate reader at 520 nm and thereafter read periodically to assess kinetics until all reactions reached completion (i.e., steady state). Since the steady-state point was 24 h, the assay results are shown from the 24 h time point. The absorbance at 520 nm (OD) was plotted versus the concentrations of the controls and nitrone compounds to assess dose-response and interpolate the EC50 values of the controls and test compounds.

[2] = Solubility measurement at pH 7.4; assay type: physicochemical; conditions: aqueous buffer, thermodynamic from solid, phosphate buffer pH 7.4, room temperature
Method: Nitrone compounds (>3 mg) of this invention were mixed with a phosphate buffer at pH 7.4 to make a >0.3 mg/mL mixture. The mixture was vortexed for more than 2 hours and equilibrated over 12 hours at room temperature. The equilibrated mixture was used to saturate a 0.45 μm Tuffryn syringe filter. After saturating, the remainder of the mixture was filtered through the saturated filter. The filtrate was diluted by 1, 10, 100, and 1000 fold and analyzed using a LC/MS/MS method with standard curve ranging from 1 to 1000 ng/mL.

[3] = Microsomal stability in human liver microsomes; assay type: in vitro ADME; conditions: NADPH, 37° C.
Method: Frozen Sprague-Dawley rat liver microsomes (RLM) were thawed on ice and gently mixed before use. The final reaction mixture consisted of a nitrone compound of this invention (at ˜500 ng/ml), 1 mM NADPH, and 0.5 mg/ml of RLM protein in 0.1 M PBS (pH7.4), with organic solvent concentration not exceeding 1% (v/v). Per set of incubations, a positive control compound was included. The mixture was first pre-incubated 3 to 5 minutes at 37° C. without NADPH, and the reaction was then initialized by the addition of NADPH and incubated at 37° C. for up to 30 minutes. An aliquot of the reaction mixture was sampled at the initiation of the reaction and at designated time after reaction started. The drawn samples were quenched with acetonitrile, diluted with mobile phase to ensure the detection of test article in the linear range, and analyzed by LC/MS/MS. Half-life or percentage of remaining nitrone compound was calculated using standard methods. A similar method, or a slight variation of it, was used to test the stability of nitrones in human liver microsomes (HLM).

[4] = Pharmacokinetic evaluation following intravenous and oral administration in rats; assay type: in vivo; conditions: male, Sprague-Dawley; for Cmax / Tmax / bioavailability: 5 mg/kg; for Cmax: rat plasma; for Cmax / Tmax: oral gavage, 2 mg/mL at 2.5 mL/kg; for clearance / Vd / Tmax / bioavailability / half-life: plasma, rat; for clearance / Vd / half-life: 1 mg/kg; for clearance / Vd: intravenous administration, 1 mg/mL at 1.0 mL/kg; for clearance: read-out: CI (clearance) (converted); for Vd: read-out: Vd (volume of distribution); for bioavailability: po 2 mg/mL at 2.5 mL/kg vs iv 1 mg/mL at 1.0 mL/kg, dose-normalized, read-out: F (%) oral bioavailability; for half-life: intravenous, read-out: T1/2 elimination half life (converted)
Method: Male Sprague-Dawley rats were given at least 24 hours acclimation before experiment initiation. During acclimation period, all animals received food and water ad libitum. However, food (not water) was removed from the animal's cages up to 12 hours before initiation of the experiment. During the first 4 hours of experimentation, the animals received only water ad libitum. Two to three animals for iv and three animals for oral administration were tested. For iv formulation nitrone compounds of this invention were dissolved (1 mg/mL) in a mixture of 5% dimethyl acetamide (v/v), 0 to 4% Tween 80 (v/v), 10 to 40% PEG 400 (v/v) and the rest percentage of water (v/v). For oral formulation nitrone compounds of this invention were dissolved (2 mg/mL) in a mixture of 4% of 10% Tween in water and 96% of 0.5% carboxymethyl cellulose (medium viscosity) in water; or 4% of 10% Tween in water, 48% of 0.5% carboxymethyl cellulose (medium viscosity) in water, and 48% of 0.5% Hydroxypropyl Methylcellulose/0.2% Sodium Lauryl Sulfate in water. These formulations were stored at 5° C. until the experiment. Formulations were then stir-mixed at least half an hour before dosing. Exactly 200 μL of each left-over formulation was diluted with CH3CN/H2O for concentration analysis. The animals were weighed before dosing. The body weight was used to calculate the true dose for each animal:
IV dosing: • Dose volume (mL)=1.0 mL/kg The intravenous dose was administered through the jugular vein catheter or tail vein in less than 1 minute.
PO dosing: • Dose volume (mL)=2.5 mL/kg The oral dose was administered by oral gavage.
For IV dosing, blood samples were collected (using a pre-heparinized syringe) via the carotid artery or jugular vein catheter at t=2, 5, 15, 30, 60, 120, 180, 360, and 480 minutes post dosing. For PO dosing, blood samples were collected (using a pre-heparinized syringe) via the carotid artery or jugular vein catheter before dosing and at t=5, 15, 30, 60, 120, 180, 360, and 480 minutes post dosing. For some nitrone compounds a 1440 minutes (24 hours) sample was also taken for both IV and PO administrations. About 250 μL of blood was obtained at each time point from the animals. Equal volumes of 0.9% normal saline were replaced to prevent dehydration. The whole blood samples were maintained on ice until centrifugation. Blood samples were then centrifuged at 14,000 rpm for 10 minutes at 4° C. and the upper plasma layer transferred into a clean vial and stored at −80° C. The resulting plasma samples were then analyzed by mass spectroscopy using standard methods.
All the samples from above assays were analyzed on a PE-Sciex API 3000 triple quadrupole with a Turbo Ion Spray source. Nitrone compounds of this invention were separated from the matrix via a linear gradient reverse-phase chromatography using a C18 column, such as Thermo BDS Hypersil C18 (100×4.6 mm, 5 micron particle, 120A pore size). The mobile Phases were:
Nitrone compounds were detected by the mass spectrometer in the positive ion multiple reaction monitoring mode (MRM). For quantitative analysis, a standard curve was prepared by spiking a stock solution of the nitrone compound to the appropriate matrix to achieve a quantitation curve range and analyzed the standards in the same manner as the samples.
Pharmacokinetic parameters of the aryl nitrone compounds were determined by a noncompartmental analysis using WinNonlin-Pro (Version 4.1, Pharsight Corporation). Average and standard deviation of the parameters were calculated using standard formulas in Microsoft Excel.

[5] = read-out: Solubility @ pH 7.4 (μg/mL)

EC50 [1] [µM]	solubility ([2]; read-out: Solubility @ pH 7.4) [µM]	solubility [2, 5] [µg/mL]	% of Nitrone Remaining at 30 min (Human) [3] [%]	Cmax [4] [ng/mL]	clearance [4] [mL/min/kg]	Vd [4] [L/kg]	Tmax [4] [min]	bioavailability [4] [%]	half-life [4] [min]	Structure (SMILES)
> 1000	5.26	2.14	0							O=S(=O)(c1ccccc1/C=[N+](\[O-])Cc1ccccc1)N1CCCc2ccccc21 [Compound 46, N-Benzyl-C-[2-(3,4-dihydro-2H-quinoline-1-sulfonyl)phenyl]nitrone]
> 1000	> 11300	> 2900	100	4170	3.33	0.8	85.2	72.2	166	CC(C)(C)/[N+]([O-])=C/c1cccnc1S(C)(=O)=O [Compound 73, N-tert-Butyl-C-(2-methanesulfonyl-pyridine-3-yl)nitrone]
> 1000	96	29.4	75.7	12	376	10.7	11.4	9.4	19.2	CC(C)(C)/[N+]([O-])=C/c1cc2ccccc2nc1S(C)(=O)=O [Compound 74, N-tert-Butyl-C-(2-methanesulfonyl-quinoline-3-yl)nitrone]
> 1000	2920	848	95.1	1030	21.8	1.07	11.4	50.2	34.2	CS(=O)(=O)c1ncccc1/C=[N+](\[O-])Cc1ccccc1 [Compound 75, N-Benzyl-C-(2-methanesulfonyl-pyridine-3-yl)nitrone]
> 1000	> 4070	> 1150	90.5							CS(=O)(=O)c1ncccc1/C=[N+](\[O-])C1CCCCC1 [Compound 76, N-Cyclohexyl-C-(2-methanesulfonyl-pyridine-3-yl)nitrone]

Second part, the compound before the results:

Structure (SMILES)	EC50 [1] [µM]	solubility ([2]; read-out: Solubility @ pH 7.4) [µM]	solubility [2, 5] [µg/mL]	% of Nitrone Remaining at 30 min (Human) [3] [%]	Cmax [4] [ng/mL]	clearance [4] [mL/min/kg]	Vd [4] [L/kg]	Tmax [4] [min]	bioavailability [4] [%]	half-life [4] [min]
O=S(=O)(c1ccccc1/C=[N+](\[O-])C1CCCCC1)N1CCOCC1 [Compound 36]	> 1000	584	206	24.2						
CN1CCN(S(=O)(=O)c2ccccc2/C=[N+](\[O-])Cc2ccccc2)CC1 [Compound 40, N-Benzyl-C-[2-(4-methyl-piperazine-1-sulfonyl)phenyl]nitrone]	> 1000	> 2280	> 851	27.9						
CN1CCN(S(=O)(=O)c2ccccc2/C=[N+](\[O-])C2CCCCC2)CC1 [Compound 39, N-Cyclohexyl-C-[2-(4-methyl-piperazine-1-sulfonyl)phenyl]nitrone]	> 1000	> 2630	> 962	41.9						
O=S(=O)(c1ccccc1/C=[N+](\[O-])C1CCCCC1)N1CCCc2ccccc21 [Compound 45, N-Cyclohexyl-C-[2-(3,4-dihydro-2H-quinoline-1-sulfonyl)phenyl]nitrone]	> 1000	3.5	1.42	0						
CC(C)(C)/[N+]([O-])=C/c1ccccc1S(=O)(=O)N1CCCc2ccccc21 [Compound 44, N-tert-Butyl-C-[2-(3,4-dihydro-2H-quinoline-1-sulfonyl)phenyl]nitrone]	> 1000	156	58.1	0						
CN1CCN(S(=O)(=O)c2ccccc2/C=[N+](\[O-])C(C)(C)C)CC1 [Compound 38, N-tert-Butyl-C-[2-(4-methyl-piperazine-1-sulfonyl)phenyl]nitrone]	> 1000	> 1860	> 632	76.6						
CN(c1ccccc1)S(=O)(=O)c1ccccc1/C=[N+](\[O-])C(C)(C)C [Compound 41]	> 1000	413	143	0						
O=S(=O)(c1ccccc1/C=[N+](\[O-])Cc1ccccc1)N1CCOCC1 [Compound 37]	100 to 500	5020	1810	65.4						
